Earlier results in US7588907B2, “Ubiquitin mediated fluorescence complementation assay” (The Regents of the University of Michigan, priority 2005, dated 2009).
Residues, ends and D or L forms follow the SMILES beside them. *: point of attachment. Cbz = O=C(OCc1ccccc1)*

System: Jun ubiquitinated by DCX^hDET1-hCOP1
Settings: cells that overexpressed DCX^hDET1-hCOP1 E3 ligase

SMILES: CC(C)C[C@@H](C=O)NC(=O)[C@H](CC(C)C)NC(=O)[C@H](CC(C)C)NC(=O)OCc1ccccc1 [MG132] (Cbz-Leu-Leu-Leu-aldehyde)
- effect on Jun degradation: inhibited
